Data set [1] can be described thus: SITA Foam Analyzer foam creation. Format: physicochemical. The conditions noted are these: single surfactant, 1%, FIG. 1. The source says:
The reagents used below include: • Alpha-Step® PC-48 is a C10-16 sodium methyl 2-sulfolaurate and disodium 2-sulfolaurate available from Stepan; • Stepan-Mild® L3 is a predominantly C12 reaction product of lauryl alcohol and lactic acid available from Stepan; • SLES is sodium laureth sulfate; • Cola® Teric is an amphoteric sultaine available from Colonial Chemical, Inc.; • Glucopon® […] is an alkyl polyglycoside available from BASF Corporation; • Suga® Nate is a sodium laurylglucosides hydrooxypropylsulfonate available from Colonial Chemicals, Inc; • Lathanol® LAL is a sodium lauryl sulfoacetate available from Stepan. All experiments ran through the SITA Foam Analyzer were as follows: Equipment: • 1) Foaming Apparatus • 2) SITA Software Reagents: • 1) 250 mL of each solution • 2) DI water Preparation: Equipment is prepared by turning the water bath on with ample time to warm up before running tests. Adjust water bath to desired temperature. Quality Assurance: Run a positive and negative control for every experiment. Ensure equipment is clean and free from any residual surfactant chemistry beforehand. In each experiment set, proper differentiation between chemistries can be seen if at least one of the tested chemistries has an “S” curve that depicts a change in the initial foam building and the lathering step. Experimental Procedure: • 1) Prepare water bath • 2) Open the “SITA-foam” software on the computer. […] Foam Generation • i. Series Count (cycles): number of measurement replicates (3-triplicate) • ii. Fill With: Volume of sample liquid (250 mL for each test) • iii. Stir Count: Number of stirrings for each test (70). This is also the number of measurements for each cycle. • iv. Stir Time: Stirring duration of sample (10 sec) • v. Revolution: RPM o the stirrer (900 RMP) • b. Cleansing • i. Click the shower icon to activate the automatic cleansing and rinsing function. The vessel will be cleaned automatically after each cycle of measurements. • ii. Normal cleansing will rinse out the vessel many times. Small cleansing indicates a faster cleansing process. All above parameters can be saved • 5) After setting the parameters, click on “Start Measurement” which is the green “Play” button to proceed with the experiment • 6) After each cycle of experiments automatic cleansing and rinsing is done in preparation for the next cycle of measurements as long as the instrument is connected to tap water or a cleansing liquid reservoir • 7) Each click on the green “Start Measurement” icon opens a new window. The current sample measurement results are all in the same project folder. To rename sample measurement files, right click on the open sample window, and click “save” to rename your sample file • 8) If an error occurs at any point with your sample, the measurement reading can be stopped by clicking the red square “Stop icon” or by pressing the large red button on the machine • 9) Organize the graph generated with the icons in the fourth section of the tool bar: create new plot, add/remove data from plot, change axis properties, and view properties. Click on the “Create new plot” icon to view the plot after the experiment is done or if it is still running. Right click to rename the plot, insert or remove the plot and display the foam buildup, foam decay, or both Establishing initial foaming of the single surfactants is important to establish baselines for comparison for the combinations of various surfactants. To establish the foaming properties of single surfactants, a high amount of each surfactant was analyzed in the SITA Foam Analyzer as described above. The final concentration of each surfactant in solution was 1%. The surfactants tested were sodium lauryl sulfate (SLES), a betaine, Cola® Teric CBS, Glucopon® […], Lathanol® LAL, and Suga® Nate 160NC. […] The compositions were tested for foaming using the SITA Foam Analyzer as described above. […]

Data set [2] concerns Staphylococcus aureus (ATCC 6538), Escherichia coli (ATCC 11229), Enterobacter aerogenes (ATCC 13048), Burkholderia cepacian (ATCC 25416), Pseudomonas …. The data set can be described thus: Preservative test, bacterial inoculum. The data set is classed as cell-based. The settings on record: Lathanol LAL in preserved compositions. The method, then: (§1) The 7 different compositions in Table 4 were tested for their preservative ability, with composition 11 being a negative control as it lacks either phenoxyethanol or benzoic acid. To test the compositions, a bacterial inoculum and a yeast and mold inoculum were created. The bacterial inoculum comprised of equal parts of Staphylococcus aureus (ATCC 6538), Escherichia coli (ATCC 11229), Enterobacter aerogenes (ATCC 13048), Burkholderia cepacian (ATCC 25416), and Pseudomonas aeruginosa (ATCC 15442). The yeast and mold inoculum comprised of equal parts of Candida albicans (ATCC 10231), Saccharomyces cerevisiae (ATCC 834), and Aspergillus niger (ATCC 16404).
(§2) The inoculates were incubated for 3 days with the bacterial inoculum at 32° C. and the yeast and mold inoculum at 26° C. The preservative compositions were added, and samples measured at 7, 14, 21, and 28 days. A sample passed if no bacteria or yeast and mod survived after Day 7, conditionally passed if there was a greater than 2.0 log reduction on day 7 when compared to day 3, with no additional growth on days 14, 21, or 28 for the bacterial samples, and if there was not more than a 0.5 log increase from the initial inoculated count at days 14 and 28 for the yeast and mold samples. The results are summarized in Table 5 for bacterial samples and Table 6 for yeast and mold.

The test system of data set [3] is Candida albicans (ATCC 10231), Saccharomyces cerevisiae (ATCC 834), Aspergillus niger (ATCC 16404). Briefly: Preservative test, yeast and mold inoculum. The settings on record: Lathanol LAL in preserved compositions. Format: cell-based. The method, then: as §1, §2

Turning to `C[N+](C)(C)CC(=O)O` [betaine], the “onset of foam saturation (in words)” value in data set [1] is “reached saturation at earlier cycles/readings”.

Turning to “sodium laurylglucosides hydrooxypropylsulfonate [Suga® Nate 160NC]”, in data set [1], the “onset of foam saturation (in words)” value is reported as “performing more slowly”.

`CCCCCCCCCCCCOC(=O)CS(=O)(=O)O.[Na]` [Lathanol® LAL, sodium lauryl sulfoacetate]: in data set [1], the “onset of foam saturation (in words)” value is given as “performing more slowly”. Further, the “interference with preservatives, bacteria (in words)” value in data set [2] is “does not interfere with the addition of preservatives”. In addition, the “interference with antifungal or antimold capabilities (in words)” value in data set [3] is given as “does not interfere with the antifungal or antimold capabilities”.

(Values after US12083196B2, “Personal cleansing compositions with surfactants for increased foam performance” (ECOLAB USA INC., priority 2020, dated 2024).)
